Marks after values point to notes of the source that are not given here.
Legend:
5-LOX enzyme = molecular target: T1, 5-LOX enzyme (Homo sapiens, UniProt P09917); assay: Fluorometric 5-LOX inhibitor screening kit; format: biochemical; details: IC50 ± standard error
T1 construct: purchased MyBioSource MBS846911
T1 sequence (P09917 1-674): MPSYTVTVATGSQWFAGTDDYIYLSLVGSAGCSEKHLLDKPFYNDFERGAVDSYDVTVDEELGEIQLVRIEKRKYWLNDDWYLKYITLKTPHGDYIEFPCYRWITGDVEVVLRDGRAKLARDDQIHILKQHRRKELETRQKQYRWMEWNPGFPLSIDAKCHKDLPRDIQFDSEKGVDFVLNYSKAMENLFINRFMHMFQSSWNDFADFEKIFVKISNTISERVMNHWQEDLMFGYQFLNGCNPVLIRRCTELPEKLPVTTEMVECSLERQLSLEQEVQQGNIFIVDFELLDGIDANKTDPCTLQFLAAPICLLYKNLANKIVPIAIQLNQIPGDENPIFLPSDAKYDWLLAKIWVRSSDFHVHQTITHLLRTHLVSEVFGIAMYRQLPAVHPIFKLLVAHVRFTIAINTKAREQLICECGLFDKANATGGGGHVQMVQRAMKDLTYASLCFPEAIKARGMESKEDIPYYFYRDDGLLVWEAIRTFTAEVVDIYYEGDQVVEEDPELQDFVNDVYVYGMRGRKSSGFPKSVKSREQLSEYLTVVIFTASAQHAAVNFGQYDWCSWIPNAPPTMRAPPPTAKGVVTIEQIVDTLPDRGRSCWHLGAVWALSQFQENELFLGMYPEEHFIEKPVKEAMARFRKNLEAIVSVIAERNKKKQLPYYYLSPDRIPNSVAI
Experimental: The 5-LOX inhibitory activates of synthesized compounds were tested using a fluorometric 5-LOX inhibitor screening kit (MyBioSource, San Diego, CA, USA; Catalog Number: MBS846911). This assay is based on the fluorometric detection of the intermediate generated by the 5-LOX enzyme. The experiment was conducted according to the manufacturer’s instructions. […] The tested compounds were dissolved in DMSO. Test solutions were added to corresponding wells at an amount of 2 µL out of the final 100 µL reaction volume per well. […] The volume was adjusted to 40 µL in each well by adding 38 µL of LOX Assay Buffer. The Reaction Mix (containing LOX Assay Buffer, LOX Probe and 5-LOX Enzyme) was prepared according to the instructions and 40 µL of the Reaction Mix was added into each well. The plate was incubated at room temperature for 10 min before adding the substrate diluted in the LOX Assay Buffer (1:2500 dilution factor). The final substrate solution was added at an amount of 20 µL into each well using a multi-channel pipette to initiate all the reactions at the same time. […] The EC, SC, IC and tested compounds at all concentrations were analyzed in triplicates. Two points (T1 and T2) in the linear range of the plot were chosen and corresponding fluorescence values (RFU1 and RFU2) were obtained. The slope for all samples was calculated by dividing ΔRFU (RFU2-RFU1) by the time Δt (T2−T1). The percentage of inhibition was calculated according to the equation mentioned in Section 3.3.1.
Fluorescence measurements were performed on a BioTek Synergy LX multi-mode reader (Winooski, VT, USA).

human serum pool = assay: Redox activity (oxy score from TOS, PAB, TAS, SHG) in vitro in human serum pool; details: 37 °C, median (interquartile range); for Oxy score (OS), 2 h incubation, TBH added / Oxy score (OS), 24 h incubation, TBH added: with TBH added; for Oxy score (OS), 2 h incubation / Oxy score (OS), 24 h incubation: without TBH; for Oxy score (OS), 2 h incubation: average of five concentrations
Experimental: The remains of the serum samples were taken from healthy subjects after biochemical analysis; these subjects participated in regular medical examinations at the Military Medical Academy in Belgrade and consented to the formation of a serum pool. Neither the patients’ data nor their identities were used. Serum pool samples were prepared and aliquoted (450 µL portions) according to the routine procedure for in-house controle samples and preserved at the -80 °C until analysis. Five serial dilutions of the tested compounds (concentrations: 1000 µM, 500 µM, 250 µM, 125 µM and 62.5 µM) were added alone (50 µL) or in combination (25 µL) with oxidant TBH (25 µM) into 450 µL of serum. The compounds were dissolved in dimethyl sulfoxide (DMSO) for stock solution (1000 µM), while a PBS buffer (phosphate buffered saline) pH = 7.4 was used for serial dilutions (500 µM, 250 µM, 125 µM and 62.5 µM). Deionized water was used as a blank. DMSO and buffer pH = 7.4 were used as a control, while trolox solution (2 mmol/L) was used as a standard. All samples were incubated in duplicate for 2 h and 24 h at 37 °C.
Oxidative stress parameters (total antioxidative status (TAS), total oxidative status (TOS), total concentration of sulfhydryl group (SHG) and prooxidative–antioxidative balance (PAB)) were determined in order to calculate prooxidative score, antioxidative score and oxy score (OS). These parameters were determined in serum.
Total antioxidative status (TAS) was measured using Erel’s method, which was further optimized by Kotur-Stevuljevic et al. in 2015 [34]. ABTS (2,2-azino-bis(3-ethyl-benzthiazoline-6-sulfonic acid) is oxidized to a green-colored ABTS^+ cation by hydrogen peroxide in the acetate buffer (pH = 3.6). This stable cation is chromogen, and the presence of antioxidants in the samples causes its discoloration proportional to their concentrations. The absorbance was measured using a SPECTROstar Nano Microplate Reader (BMG Labtech, Ortenberg, Germany). The reaction was calibrated with Trolox and the TAS values are expressed as mmol trolox equivalent/L.
Total oxidative status (TOS) was measured using Erel’s method. Here, a ferrous ion-o-dianisidine complex is oxidized to ferric ion by the oxidants present in the sample. The ferric ion forms a colored complex with xylenol orange in an acidic environment and in the presence of glycerol. The intensity of the color of the formed complex is proportional to the total contents of oxidants in the sample. The absorbance was measured at 560 nm using a SPECTROstar Nano Microplate Reader (BMG Labtech, Ortenberg, Germany). The reaction was calibrated with hydrogen peroxide and the TOS values are expressed as µmol H2O2 equivalent/L.
Prooxidant–antioxidant balance (PAB) was measured according to procedures in the literature. Here, hydrogen peroxide is determined in the presence of antioxidants in the sample. Both of them (hydrogen peroxide and antioxidants (including uric acid)) react with chromogen TMB (3,3′,5,5′-tetramethylbenzidine) simultaneously. The hydrogen peroxide and chromogen reaction is enzymatically catalyzed with peroxidase, while the antioxidants–chromogen reaction is non-enzymatic. The intense blue color, produced as a result of the reaction between hydrogen peroxide and TMB, is decolorized by the reaction of the antioxidant with the TMB. The resulting color (result of two competitive reactions) is proportional to the ratio of antioxidants to prooxidants. The absorbance was measured at 450 nm. Different ratios of hydrogen peroxide and uric acid solutions were used to make a standard curve. The PAB results are expressed in hydrogen peroxide concentrations.
Total Sulfydryl Groups Content (SHG) was measured using a modified version of Ellman’s method. This method is based on the reaction between DTNB ([…]) and aliphatic thiol compounds in an alkaline environment (pH = 9.0). […]

Compound	IC50 (5-LOX enzyme)	Oxy score (OS), 2 h incubation, TBH added (human serum pool)	Oxy score (OS), 2 h incubation (human serum pool)	Oxy score (OS), 24 h incubation, TBH added (human serum pool)	Oxy score (OS), 24 h incubation (human serum pool)
COc1ccc2c(c1)c(CNC(=O)NO)c(C)n2C(=O)c1ccc(Cl)cc1 [Compound 1, N’-hydroxy-N-[(1-(4-chlorobenzoyl)-5-methoxy-2-methyl-3-indolyl)methyl]urea]	5.71 ± 0.15 µM	6.44 (5.51–7.02)	−0.43 (−1.27–3.13)	5.46 (4.96–6.20)	0.71 (0.51–0.80)
CC(NC(=O)NO)c1ccc(-c2ccccc2)c(F)c1 (centres unmarked) [Compound 2]	1.62 ± 0.67 µM	5.20 (3.70–5.42)	3.28 (−0.68–16.66)	6.79 (4.37–7.90)	0.33 (−0.07–0.85)
O=C(NO)NCc1ccccc1Nc1c(Cl)cccc1Cl [Compound 3, N’-hydroxy-N-[(2-(2,6-dichloroanilino)phenyl)methyl]urea]	1.73 ± 0.64 µM	5.81 (4.64–7.25)	1.58 (−0.38–3.45)	1.93 (0.65–5.02) ^#	1.31 (−0.31–1.75)
COC(=O)C(Cc1c[nH]cn1)NC(=O)c1cc(C(C)(C)C)c(O)c(C(C)(C)C)c1 (centres unmarked) [Compound 4, 2-(3,5-di-tert-butyl-4-hydroxy-benzoylamino)-3-(1H-imidazol-4-yl)-propionic acid methyl ester]	8.1 ± 2.12 µM	3.68 (3.36–8.40)	0.24 (−0.24–0.89)	7.86 (7.20–10.68)	3.00 (1.99–3.93) **
COC(=O)CNC(=O)c1cc(C(C)(C)C)c(O)c(C(C)(C)C)c1 [Compound 5, (3,5-di-tert-butyl-4-hydroxy-benzoylamino)-acetic acid methyl ester]	9.3 ± 1.87 µM	2.83 (2.55–3.39)	0.29 (−0.30–1.23)	5.64 (5.07–6.47)	2.14 (1.37–2.62) **

Continued, in another order:

IC50 (5-LOX enzyme)	Compound	Oxy score (OS), 2 h incubation, TBH added (human serum pool)	Oxy score (OS), 2 h incubation (human serum pool)	Oxy score (OS), 24 h incubation, TBH added (human serum pool)	Oxy score (OS), 24 h incubation (human serum pool)
53.8 ± 11.9 µM	C=CCNC(=O)c1cc(C(C)(C)C)c(O)c(C(C)(C)C)c1 [Compound 6, N-allyl-3,5-di-tert-butyl-4-hydroxy-benzamide]	3.77 (3.37–4.20)	0.52 (0.08–1.52)	6.07 (4.34–7.02)	3.09 (2.50–3.67)
12.6 ± 3.36 µM	C#CCNC(=O)c1cc(C(C)(C)C)c(O)c(C(C)(C)C)c1 [Compound 7, 3,5-di-tert-butyl-4-hydroxy-N-prop-2-ynyl-benzamide]	6.62 (6.42–6.98)	3.12 (2.21–3.47)	10.54 (4.45–27.42)	2.55 (2.18–2.92)
14.5 ± 3.62 µM	CCOc1ccccc1NC(=O)N(C)C [Compound 8, 3-(2-ethoxy-phenyl)-1,1-dimethyl-urea]	8.43 (5.76–13.81)	0.03 (−0.96–1.46)	−0.55 (−0.67–1.48) ^##	−0.52 (−1.24–3.03)
> 100 µM	CN(C)C(=O)Nc1ccccc1C(=O)O [Compound 9, 2-(3,3-dimethyl-ureido)-benzoic acid]	5.97 (4.06–8.25)	0.09 (−0.79–1.80)	−0.19 (−0.68–1.56)	−0.18 (−1.55–2.91)
13 ± 2.67 µM	CCOc1ccccc1NC(=O)Nc1ccc([N+](=O)[O-])cc1 [Compound 10, 1-(2-ethoxy-phenyl)-3-(4-nitro-phenyl)-urea]	6.34 (5.07–22.02)	–	0.97 (−0.04–4.08)	−0.97 (−1.53–3.85)
1.04 ± 0.22 µM	CC(=O)N(O)C(C)c1ccc(CC(C)C)cc1 (centres unmarked) [Compound 11]	5.15 (4.76–6.74)	−0.22 (−0.65–0.82)	3.18 (2.92–3.60) ^##	1.83 (1.49–2.18) *
1.29 ± 0.1 µM	COc1ccc2cc(C(C)N(O)C(C)=O)ccc2c1 (centres unmarked) [Compound 12, N-hydroxy-N-[1-(6-methoxy-naphthalen-2-yl)-ethyl]-acetamide]	4.79 (4.25–5.43)	0.24 (−0.06–0.58)	3.97 (3.44–6.33)	2.49 (2.03–2.66) **
